Legend:
[1] = biological target: T1, recombinant human MCU-NTD (residues 72-189) (Homo sapiens, UniProt Q8NE86); assay: Interaction with recombinant MCU-NTD (NMR HSQC, SDS-PAGE); type: binding; conditions: for interaction with MCU-NTD in solution: cell-free, C-2 at 3-fold molar excess
T1 construct: recombinant human MCU-NTD (residues 72-189)
T1 sequence (Q8NE86 72-189): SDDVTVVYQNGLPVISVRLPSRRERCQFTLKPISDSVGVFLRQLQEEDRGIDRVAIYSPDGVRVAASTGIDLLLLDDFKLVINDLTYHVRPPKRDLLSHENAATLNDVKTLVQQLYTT
Source text: To further elucidate the potential interaction of C-2 with the MCU-NTD, the interaction between C-2 and the uniformly ^15N-labeled recombinant human MCU-NTD (residues 72-189) was investigated using solution nuclear magnetic resonance (NMR) spectroscopy.
To determine if the MCU-NTD remained intact upon treatment with C-2, the insoluble aggregate (Insol.+C-2) was resuspended in loading dye and the migration of the protein was compared to untreated soluble MCU-NTD (Sol.) by SDIS-PAGE analysis. […] The appearance of the trimer and higher order aggregates upon treatment with C-2 may indicate that the MCU-NTD conformation induced by C-2 is different from that of the native conformation. Similar MCU-NTD aggregation was observed when the MCU-NTD was treated with lower molar ratios (i.e. 1:2 and 1:1) of C-2.
The clustering of these perturbations could be a result of i) direct binding with the compound, ii) indirect effects of the lower soluble protein concentration shifting the self-association equilibrium, or iii) C-2-mediated modifications to the protein. […] Thus, the NTD may be a potent target for MCU inhibition that is only accessible to C-2 because of its enhanced membrane permeability when compared to Ru360.

[2] = MTT cytotoxicity assay; type: cell-based, human; conditions: human; HEK293 cells, 72 hours incubation; read-out: IC50 (cytotoxicity, MTT)
Experimental: HEK293 (human embryonic kidney cells were obtained from American Type Culture Collection (ATCC, Washington D.C.) and cultured as adherent monolayers in a humidified 5% CO2 atmosphere at 37° C. in Minimum Essential Media supplemented with 10% fetal bovine serum (FBS) and 100 U/mL penicillin/streptomycin. HeLa cells were cultured in Dulbecco's Modified Eagle's Medium (DMEM) supplemented with 10% FBS and 100 U/mL penicillin/streptomycin. Cells were checked for contamination monthly using the PlasmoTest™ mycoplasma detection kit. Ventricular cardiomyocytes were isolated from neonatal rats (NRVMs) as previously described (H. M. Piper et al., Piper H. M. (eds), Cell Culture Techniques in Heart and Vessel Research, Springer Verlag: Berlin, 1990). The isolated myocytes were cultured in Ham's F-10 supplemented with 5%/o fetal bovine serum (FBS) and penicillin/streptomycin (100 U/ml) at 37° C. in a 95% air/5% CO2 humidified atmosphere for four days
Cells were seeded at 4000 cells/well in 100 μL/well in a 96-well plate and incubated for 24 hours. The media was removed and replaced with 200 μL of growth media containing varying concentrations of the complex. After 72 hours of incubation, the media was replaced with MEM containing 1 mg/mL of (4,5-dimethylthiazol-2-yl)-2,5-diepheyltetrazolium bromide (MTT). After four hours incubation, the media was removed and the purple formazan crystals were solubilized using 100 μL of a 8/1 DMSO/glycine buffer (pH 10) mixture. The absorbance at 570 nm was measured using a plate reader.
With the new nitrido-bridged ruthenium compounds C-2 and C-3 prepared, MCU-inhibitory properties of these compounds were evaluated and their activities compared to C-1, the oxo-bridged Ru360 analogue of the conventional art (S. R. Nathan et al., Inorg. Chem. 2017, 56, 3123-3126 and S. R. Nathan et al., J. Vis. Exp. 2017, 56527). The cytotoxicity of the complexes in HEK293 cells was first measured using the colorimetric thiazolyl blue tetrazolium bromide (MTT) assay, as well known in the art. […]

[3] = tested on: HEK293 cells; assay: Whole cell uptake of ruthenium (GFAAS) in HEK293 cells; type: cell-based, human; conditions: 50 μM, 24 hours
Experimental: HEK293 cells were grown to near confluence in 75 cm^2 dishes. […] The cells were then treated with culture media containing 50 μM of the complex and incubated at 37° C. for 24 hours. The cells were washed with 1 mL of PBS and harvested using 0.05% trypsin. The cells were pelleted by centrifugation, re-suspended in 1 mL of PBS, and pelleted again. The washing and pelleting step was repeated a total of three times, after which the supernatant was removed and the cells were suspended in 500 μL of lysis buffer containing 1% w/v 3-[3-cholamidopropyl)dimethylammonio]-1-propanesulfonate) (CHAPS), 5 mM ethylenediamine tetraacetic acid (EDTA), and 50 mM tris(hydroxymethyl)aminomethane (Tris) and 100 mM NaCl (pH=7.4). The suspension was vortexed for 30 seconds and incubated on ice for 45 minutes. Control cells not treated with the complexes were handled identically to the treated cells to correct for ruthenium present in the cells, and control dishes were incubated with the complex in the absence of cells to correct for non-specific adsorption of ruthenium to the plastic. If needed, samples were stored in −80° C. until analysis. Ruthenium and protein content of the lysates were determined as described above.

[4] = tested on: HeLa cells; assay: Whole cell uptake of ruthenium (GFAAS) in HeLa cells; type: cell-based; conditions: 50 μM, 24 hours
[5] = Water solubility; type: physicochemical
[6] = tested on: HeLa cells; assay: Mitochondrial accumulation of ruthenium in HeLa cells (mitochondrial isolation, GFAAS); conditions: 50 μM, 24 hours
Experimental: Approximately 1×10^6 HeLa cells were seeded in 75 cm^2 dishes and allowed to adhere overnight. The following day, the cell culture media was removed, and the cells were washed with 3 mL of PBS before treatment with media containing 50 μM of the complex. After 24 hours, the culture media was removed, and the cell monolayer was washed with 3 mL of PBS before the cells were harvested by trypsinization. The cell suspension was centrifuged, and the resulting pellet was resuspended in 3 ml, of PBS and centrifuged again to remove extracellular ruthenium. This washing step was repeated a total of three times. […] The ruthenium concentration in each sample was determined by GFAAS and was normalized to the protein content of the lysate, which was determined using the Bicinchoninic Acid Protein Assay Kit. […] Results were calculated as the mass ratio of total ruthenium to protein (pg/μg) in each sample±standard deviation of three independent trials. […]
To determine the abilities of the complexes to accumulate in the mitochondria, HeLa cells were treated with C-1, C-2 or C-3 (50 μM) in culture media for 24 hours, and the mitochondria were isolated following modified literature procedures (e.g., A. C. Komor et al., J. Am Chem. Soc. 2012, 134, 19223-19233). Both the mitochondrial and extramitochondrial fractions were analyzed for ruthenium content.

Compound	interaction with MCU-NTD in solution [1]	CC50 at 72 h [2]	cellular uptake relative to C-1 [3]	cellular uptake relative to C-3 [3]	cellular uptake relative to C-1 and C-3 [4]	SDS-PAGE of protein precipitate formed with MCU-NTD ([1]; Coomassie blue staining)	solubility [5]	concentration in the mitochondria compared to C-1 and C-3 [6]
N.N.N.N.N.N.N.N.O=C[O-].O=C[O-].[O-2].[Ru+3].[Ru+4] [Ru360, reference compound]	interacts with the purified MCU-NTD in a cell-free system, giving rise to precipitation and systematic laddering	–	–	–	–	–	–	–
N.N.N.N.N.N.N.N.[Cl-].[Cl-].[N-3].[Ru+4].[Ru+4] [C-2, [Ru2(μ-N)(NH3)8Cl2]Cl3]	rapid formation of insoluble precipitate	195 ± 8 µM	10 times	over twice as effectively as C-3	twice as effectively as C-1 and C-3	distinct and systematic laddering corresponding to the presence of monomer, dimer, trimer, tetramer, and higher aggregate formation	1000 µg/mL	greater than three-fold higher concentrations

From patent US11154569B2, “Ruthenium μ-nitrido complexes and their use as calcium uptake inhibitors” (CORNELL UNIVERSITY, priority 2018, dated 2021)
